Data published in patent US8642629B2, “Naphthylacetic acids” (Hoffmann-La Roche Inc., priority 2008, dated 2014).

Columns and labels:
human CRTH2 [1] = molecular target: T1, human CRTH2 (Homo sapiens, UniProt Q9Y5Y4); assay: Human CRTH2 Receptor Binding Assay (whole cell, [3H]ramatroban competition); conditions: CHO-K1 cells expressing human CRTH2 and G-alpha16; 20 nM [3H]ramatroban; 1 hour, room temperature
T1 construct: expressed in transfected cells; host or cells: CHO-K1
T1 sequence (Q9Y5Y4 1-395): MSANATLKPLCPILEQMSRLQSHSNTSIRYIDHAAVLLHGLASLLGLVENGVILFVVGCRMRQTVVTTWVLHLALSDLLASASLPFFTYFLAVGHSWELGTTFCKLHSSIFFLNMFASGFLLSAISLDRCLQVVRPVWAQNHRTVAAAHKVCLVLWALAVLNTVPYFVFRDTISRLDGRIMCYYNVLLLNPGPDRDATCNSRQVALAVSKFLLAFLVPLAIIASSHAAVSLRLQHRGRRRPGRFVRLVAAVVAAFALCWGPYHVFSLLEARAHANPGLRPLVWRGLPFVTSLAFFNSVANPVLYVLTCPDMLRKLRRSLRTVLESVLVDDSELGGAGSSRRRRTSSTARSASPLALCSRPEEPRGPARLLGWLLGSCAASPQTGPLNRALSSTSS
Outline: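 Whole CHO-K1 cells stably expressing human CRTH2 and G-alpha16 were incubated with 20 nM [3H]ramatroban and compound for 1 h at room temperature in PBS with 10 mM MgCl2 and 0.06% BSA, then filtered and counted. Non-specific binding was defined with 10 μM 15(R)-15-methyl PGD2, and IC50 was fitted by 4-parameter logistic from 7 concentrations.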

human CRTH2 [2] = molecular target: T1, human CRTH2; assay: Calcium Flux Assay Using Fluorometric Imaging Plate Reader (FLIPR); type: cell-based; conditions: CHO-K1 cells transfected with G-alpha 16 and human CRTH2; inhibition of ligand (DK-PGD2) response
Method: CHO-K1 cells previously transfected with G-alpha 16 were subsequently transfected with the human CRTH2 receptor and the neomycin resistance gene. Following selection in 800 μg/mL G418 (geneticin), individual clones were assayed for their receptor expression based on staining with an anti human CRTH2 IgG, followed by assaying for their response to 13,14-dihydro-15-keto Prostaglandin D2 (DK-PDG2) (ligand) in the Ca^2+ Flux assay. Positive clones were then cloned by limiting dilution cloning. […] Cells were harvested with trypsin-EDTA (trypsin-ethylenediaminetetraacetic acid) and counted using ViaCount® reagent (from Guava Technologies, Inc. which contains two DNA-binding dyes that enable the reagent user to distinguish between viable and non-viable cells). […]
After incubation, both the cell and “assay plate” plates were brought to the fluorometric imaging plate reader (FLIPR®) and 20 μL of the diluted compounds were transferred to the cell plates by the FLIPR®. […] During the assay, fluorescence readings were taken simultaneously from all 384 wells of the cell plate every 1.5 seconds. Five readings were taken to establish a stable baseline, then 20 μL of sample was rapidly (30 μL/sec) and simultaneously added to each well of the cell plate. The fluorescence was continuously monitored before, during and after sample addition for a total elapsed time of 100 seconds. […]

## CCS(=O)(=O)c1ccc(Oc2cc(CC(=O)O)cc3ccc(F)cc23)cc1 [Example 1-1, [4-(4-ethanesulfonyl-phenoxy)-6-fluoro-naphthalen-2-yl]-acetic acid]
Human CRTH2 [1]
  IC50: 2.3 nM
Human CRTH2 [2]
  IC50: 5000 nM

## CCS(=O)(=O)c1ccc(Oc2c(C)c(CCC(=O)O)cc3ccc(F)cc23)cc1 [Example 7-1, 3-[4-(4-ethanesulfonyl-phenoxy)-6-fluoro-3-methyl-naphthalen-2-yl]-propionic acid]
Human CRTH2 [1]
  IC50: 130 nM
Human CRTH2 [2]
  IC50: 4200 nM
